Results reported in ChEMBL document CHEMBL1909046, “DrugMatrix in vitro pharmacology data”.

Experiments:
[1] = biological target: Kappa-type opioid receptor (Homo sapiens, UniProt P41145); assay: DRUGMATRIX: Opiate kappa (OP2, KOP) radioligand binding (ligand: [3H] Diprenorphine); format: cell membranes, HEK293, Membrane; settings: hek293; Not Active = under 50% inhibition at 10 µM
Neutrophil elastase = biological target: T1, Neutrophil elastase (Homo sapiens, UniProt P08246); format: tissue-based;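 further: inhibition of neutrophil elastase enzyme activity, measured with a p-nitroanilide-linked peptide substrate; in other assays of this panel Not Active means under 50% inhibition at 10 µM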
T1 sequence (P08246 whole entry): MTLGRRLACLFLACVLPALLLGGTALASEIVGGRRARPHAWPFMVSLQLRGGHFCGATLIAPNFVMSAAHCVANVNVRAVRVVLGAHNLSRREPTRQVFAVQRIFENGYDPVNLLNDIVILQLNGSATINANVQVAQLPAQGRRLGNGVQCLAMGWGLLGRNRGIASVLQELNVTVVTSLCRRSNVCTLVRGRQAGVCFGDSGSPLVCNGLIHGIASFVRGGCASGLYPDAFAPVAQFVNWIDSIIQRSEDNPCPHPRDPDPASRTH

Glycine receptor = Glycine receptor (Rattus norvegicus, UniProt P22771+P24524+P07727+P20781); format: cell membranes, Wistar, Spinal cord, Membrane; further: in other assays of this panel Not Active means under 50% inhibition at 10 µM
Glucocorticoid receptor = biological target: T2, Glucocorticoid receptor (Homo sapiens, UniProt P04150); settings: hela s3; further: in other assays of this panel Not Active means under 50% inhibition at 10 µM
T2 sequence (P04150 whole entry): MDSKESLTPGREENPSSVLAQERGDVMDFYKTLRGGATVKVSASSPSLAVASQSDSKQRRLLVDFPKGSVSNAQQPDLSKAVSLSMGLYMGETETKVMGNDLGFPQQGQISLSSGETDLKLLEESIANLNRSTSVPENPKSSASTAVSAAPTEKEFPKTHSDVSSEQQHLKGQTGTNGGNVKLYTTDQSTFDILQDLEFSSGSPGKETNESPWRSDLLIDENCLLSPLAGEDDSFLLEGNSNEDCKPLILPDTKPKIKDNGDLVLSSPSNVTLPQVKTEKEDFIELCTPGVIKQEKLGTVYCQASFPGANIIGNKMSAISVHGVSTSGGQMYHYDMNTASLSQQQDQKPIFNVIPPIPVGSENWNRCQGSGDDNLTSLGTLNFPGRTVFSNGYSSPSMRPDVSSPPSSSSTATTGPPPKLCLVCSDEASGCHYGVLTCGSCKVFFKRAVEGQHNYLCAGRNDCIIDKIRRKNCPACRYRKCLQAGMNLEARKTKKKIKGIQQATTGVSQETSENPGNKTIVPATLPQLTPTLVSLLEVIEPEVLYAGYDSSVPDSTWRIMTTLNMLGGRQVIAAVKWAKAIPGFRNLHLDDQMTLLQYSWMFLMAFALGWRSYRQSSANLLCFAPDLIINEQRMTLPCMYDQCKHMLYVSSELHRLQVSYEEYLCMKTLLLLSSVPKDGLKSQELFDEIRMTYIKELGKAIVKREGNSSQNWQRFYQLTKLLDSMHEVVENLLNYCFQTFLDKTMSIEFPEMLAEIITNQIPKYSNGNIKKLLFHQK

[2] = biological target: Tyrosine-protein kinase Fyn (Homo sapiens, UniProt P06241); assay: biochemical; format: cell-based, Insect cells; settings: insect cells;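 further: enzymatic inhibition of Fyn kinase activity measured with Poly(Glu:Tyr) as the phosphorylation substrate; in other assays of this panel Not Active means under 50% inhibition at 10 µM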
[3] = biological target: Sodium-dependent dopamine transporter (Homo sapiens, UniProt Q01959); assay: DRUGMATRIX: Dopamine Transporter radioligand binding (ligand: [125I] RTI-55); format: cell membranes, CHO-K1, Membrane; settings: Not Active = under 50% inhibition at 10 µM
[4] = DRUGMATRIX: GABAA, Muscimol, Central radioligand binding (ligand: [3H] Muscimol); format: cell membranes, Rattus norvegicus, Wistar, Brain, Membrane; settings: Not Active = under 50% inhibition at 10 µM
Estrogen receptor beta = Estrogen receptor beta (Homo sapiens, UniProt Q92731); settings: sf9; further: in other assays of this panel Not Active means under 50% inhibition at 10 µM
Sequence of Estrogen receptor beta (Q92731 whole entry): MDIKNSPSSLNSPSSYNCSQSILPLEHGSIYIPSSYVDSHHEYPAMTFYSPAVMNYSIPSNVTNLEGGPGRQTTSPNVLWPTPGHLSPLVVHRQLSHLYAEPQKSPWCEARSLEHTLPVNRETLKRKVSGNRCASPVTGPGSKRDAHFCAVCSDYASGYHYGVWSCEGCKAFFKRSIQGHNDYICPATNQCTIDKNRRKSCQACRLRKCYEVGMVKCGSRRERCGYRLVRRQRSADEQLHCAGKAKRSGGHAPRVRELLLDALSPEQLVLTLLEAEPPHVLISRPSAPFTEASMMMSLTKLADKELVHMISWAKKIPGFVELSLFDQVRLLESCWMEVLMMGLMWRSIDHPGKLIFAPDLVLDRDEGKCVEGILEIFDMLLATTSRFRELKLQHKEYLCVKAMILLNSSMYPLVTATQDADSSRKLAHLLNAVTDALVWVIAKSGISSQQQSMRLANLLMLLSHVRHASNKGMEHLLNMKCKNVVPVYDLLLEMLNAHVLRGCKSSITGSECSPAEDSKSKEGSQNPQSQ

Sequence of Tyrosine-protein kinase Fyn (P06241 whole entry): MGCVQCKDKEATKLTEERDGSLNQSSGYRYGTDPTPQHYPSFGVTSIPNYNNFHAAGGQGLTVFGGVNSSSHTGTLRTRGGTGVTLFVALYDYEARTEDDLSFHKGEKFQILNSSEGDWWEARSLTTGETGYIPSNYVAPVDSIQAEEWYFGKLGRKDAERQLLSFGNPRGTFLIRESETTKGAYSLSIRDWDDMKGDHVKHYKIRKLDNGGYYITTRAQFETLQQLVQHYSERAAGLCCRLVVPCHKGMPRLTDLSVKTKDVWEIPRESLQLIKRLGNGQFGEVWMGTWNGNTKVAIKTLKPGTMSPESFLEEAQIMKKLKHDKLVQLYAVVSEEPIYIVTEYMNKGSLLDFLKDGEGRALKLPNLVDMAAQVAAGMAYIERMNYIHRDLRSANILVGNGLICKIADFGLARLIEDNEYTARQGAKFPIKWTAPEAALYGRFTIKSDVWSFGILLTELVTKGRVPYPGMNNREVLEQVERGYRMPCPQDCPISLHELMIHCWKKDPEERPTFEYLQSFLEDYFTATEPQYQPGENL
Sequence of Kappa-type opioid receptor (P41145 whole entry): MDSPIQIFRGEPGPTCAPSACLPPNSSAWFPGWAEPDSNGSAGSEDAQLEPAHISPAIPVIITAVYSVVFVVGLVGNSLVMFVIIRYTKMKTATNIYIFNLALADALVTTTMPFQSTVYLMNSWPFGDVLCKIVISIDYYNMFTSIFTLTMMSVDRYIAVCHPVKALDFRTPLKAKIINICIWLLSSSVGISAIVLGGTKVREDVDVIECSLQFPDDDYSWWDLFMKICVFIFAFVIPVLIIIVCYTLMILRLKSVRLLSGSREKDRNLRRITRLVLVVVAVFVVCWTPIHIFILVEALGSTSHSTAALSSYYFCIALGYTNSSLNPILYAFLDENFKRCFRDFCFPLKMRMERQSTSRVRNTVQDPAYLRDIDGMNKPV
Sequence of Sodium-dependent dopamine transporter (Q01959 whole entry): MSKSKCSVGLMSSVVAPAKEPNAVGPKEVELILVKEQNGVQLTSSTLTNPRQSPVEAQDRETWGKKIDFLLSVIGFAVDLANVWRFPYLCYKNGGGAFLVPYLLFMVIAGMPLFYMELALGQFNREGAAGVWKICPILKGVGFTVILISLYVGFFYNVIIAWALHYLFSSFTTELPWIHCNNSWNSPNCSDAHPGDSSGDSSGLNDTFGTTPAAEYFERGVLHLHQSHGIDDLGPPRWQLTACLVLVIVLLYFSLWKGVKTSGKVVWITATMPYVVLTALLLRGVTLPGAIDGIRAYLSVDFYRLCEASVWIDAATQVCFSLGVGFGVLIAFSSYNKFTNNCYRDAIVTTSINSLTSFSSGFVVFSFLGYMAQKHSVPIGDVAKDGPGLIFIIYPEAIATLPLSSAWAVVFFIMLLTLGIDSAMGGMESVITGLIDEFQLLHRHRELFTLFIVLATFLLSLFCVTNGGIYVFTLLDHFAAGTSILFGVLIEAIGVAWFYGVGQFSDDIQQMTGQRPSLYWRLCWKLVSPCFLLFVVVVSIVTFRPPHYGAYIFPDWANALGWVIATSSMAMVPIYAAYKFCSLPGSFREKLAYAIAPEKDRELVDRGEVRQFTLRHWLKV

SMILES: O=C1c2ccccc2C(=O)C1c1ccccc1 [PHENINDIONE]
- IC50 [1]: Not Active
- IC50 (Neutrophil elastase): Not Active
- IC50 (Glycine receptor): Not Active
- IC50 (Glucocorticoid receptor): Not Active
- IC50 [2]: Not Active
- IC50 ([3]; cho-k1): Not Active
- IC50 [4]: Not Active
- Ki [4]: Not Active

SMILES: C[C@H]1C[C@H]2[C@@H]3CCC4=CC(=O)C=C[C@]4(C)[C@@]3(F)[C@@H](O)C[C@]2(C)[C@@]1(O)C(=O)CO [BETAMETHASONE]
- IC50 [1]: Not Active
- IC50 (Neutrophil elastase): Not Active
- IC50 (Glycine receptor): Not Active
- IC50 [2]: Not Active
- IC50 ([3]; cho-k1): Not Active
- IC50 [4]: Not Active
- Ki [4]: Not Active

SMILES: COc1ccc(Cl)cc1C(=O)NCCc1ccc(S(=O)(=O)NC(=O)NC2CCCCC2)cc1 [GLYBURIDE]
- IC50 [1]: Not Active
- IC50 (Estrogen receptor beta): Not Active
- IC50 (Neutrophil elastase): Not Active
- IC50 (Glycine receptor): Not Active
- IC50 [2]: Not Active
- IC50 ([3]; cho-k1): Not Active
- IC50 [4]: Not Active
- Ki [4]: Not Active

SMILES: CNC[C@H](O)c1ccc(O)c(O)c1 [EPINEPHRINE]
- IC50 [1]: Not Active
- IC50 (Neutrophil elastase): Not Active
- IC50 (Glycine receptor): Not Active
- IC50 [2]: Not Active
- IC50 ([3]; cho-k1): Not Active
- IC50 [4]: Not Active
- Ki [4]: Not Active

SMILES: CCN1C[C@]2(COC)[C@H](O)C[C@H](OC)[C@@]34[C@@H]5C[C@@]6(O)[C@H](OC(=O)c7ccccc7)[C@@H]5[C@@](OC(C)=O)([C@@H]([C@H](OC)[C@H]23)[C@@H]14)[C@@H](O)[C@@H]6OC [ACONITINE]
- IC50 (Estrogen receptor beta): Not Active
- IC50 (Neutrophil elastase): Not Active
- IC50 (Glycine receptor): Not Active
- IC50 [2]: Not Active
- IC50 ([3]; cho-k1): Not Active
- IC50 [4]: Not Active
- Ki [4]: Not Active

SMILES: NC(N)=Nc1nc(CSCCC(N)=NS(N)(=O)=O)cs1 [FAMOTIDINE]
- IC50 [1]: Not Active
- IC50 (Neutrophil elastase): Not Active
- IC50 (Glycine receptor): Not Active
- IC50 (Glucocorticoid receptor): Not Active
- IC50 [2]: Not Active
- IC50 ([3]; cho-k1): Not Active
- IC50 [4]: Not Active
- Ki [4]: Not Active

SMILES: O=C(O)c1ccccc1 [BENZOIC ACID]
- IC50 [1]: Not Active
- IC50 (Neutrophil elastase): Not Active
- IC50 (Glycine receptor): Not Active
- IC50 [2]: Not Active
- IC50 ([3]; cho-k1): Not Active
- IC50 [4]: Not Active
- Ki [4]: Not Active

SMILES: O=c1[nH]cnc2c1ncn2[C@H]1CC[C@@H](CO)O1 [DIDANOSINE]
- IC50 [1]: Not Active
- IC50 (Neutrophil elastase): Not Active
- IC50 (Glycine receptor): Not Active
- IC50 (Glucocorticoid receptor): Not Active
- IC50 [2]: Not Active
- IC50 ([3]; cho-k1): Not Active
- IC50 [4]: Not Active
- Ki [4]: Not Active

SMILES: CC(C)(c1ccc(O)cc1)c1ccc(O)cc1 [BISPHENOL A]
- IC50 [1]: Not Active
- IC50 (Estrogen receptor beta): Not Active
- IC50 (Neutrophil elastase): Not Active
- IC50 (Glycine receptor): Not Active
- IC50 [2]: Not Active
- IC50 ([3]; read-out: IC50): 19 µM
- Ki ([3]; read-out: Ki): 15.1 µM
- IC50 [4]: Not Active
- Ki [4]: Not Active

SMILES: ClC1=C(Cl)[C@]2(Cl)[C@@H]3[C@@H]4C[C@@H]([C@H]5O[C@@H]45)[C@@H]3[C@@]1(Cl)C2(Cl)Cl [DIELDRIN]
- IC50 (Neutrophil elastase): Not Active
- IC50 (Glycine receptor): Not Active
- IC50 (Glucocorticoid receptor): Not Active
- IC50 [2]: Not Active
- IC50 ([3]; cho-k1): Not Active
- IC50 [4]: Not Active
- Ki [4]: Not Active

SMILES: CC12CCC(CC1)C(C)(C)O2 [EUCALYPTOL]
- IC50 [1]: Not Active
- IC50 (Neutrophil elastase): Not Active
- IC50 (Glycine receptor): Not Active
- IC50 (Glucocorticoid receptor): Not Active
- IC50 [2]: Not Active
- IC50 ([3]; cho-k1): Not Active
- IC50 [4]: Not Active
- Ki [4]: Not Active

SMILES: Nc1ccc(Cc2ccc(N)cc2)cc1
- IC50 (Neutrophil elastase): Not Active
- IC50 (Glycine receptor): Not Active
- IC50 (Glucocorticoid receptor): Not Active
- IC50 [2]: Not Active
- IC50 ([3]; cho-k1): Not Active
- IC50 [4]: Not Active
- Ki [4]: Not Active

SMILES: Nc1ccc(C(=O)O)c(O)c1 [AMINOSALICYLIC ACID]
- IC50 [1]: Not Active
- IC50 (Neutrophil elastase): Not Active
- IC50 (Glycine receptor): Not Active
- IC50 (Glucocorticoid receptor): Not Active
- IC50 [2]: Not Active
- IC50 ([3]; cho-k1): Not Active
- IC50 [4]: Not Active
- Ki [4]: Not Active
